{
  "source": "patent US20010034367A1",
  "about": "“Compositions and methods for the treatment of cystic fibrosis” (priority 1998, published 2001)",
  "key": {"ΔF508-CFTR [1]": {"biological_target": "T1, ΔF508-CFTR (Homo sapiens, UniProt P13569, DEL508-508)", "T1 construct": "primary cultures of nasal polyp epithelia from CF patients (ΔF508 homozygous or heterozygous), or the CF bronchial epithelial cell line IB3-1; endogenous in cells; host or cells: primary nasal polyp epithelia from CF patients; IB3-1 CF bronchial epithelial cell line", "T1 sequence (P13569 with tags, fused parts or gaps DEL508-508)": "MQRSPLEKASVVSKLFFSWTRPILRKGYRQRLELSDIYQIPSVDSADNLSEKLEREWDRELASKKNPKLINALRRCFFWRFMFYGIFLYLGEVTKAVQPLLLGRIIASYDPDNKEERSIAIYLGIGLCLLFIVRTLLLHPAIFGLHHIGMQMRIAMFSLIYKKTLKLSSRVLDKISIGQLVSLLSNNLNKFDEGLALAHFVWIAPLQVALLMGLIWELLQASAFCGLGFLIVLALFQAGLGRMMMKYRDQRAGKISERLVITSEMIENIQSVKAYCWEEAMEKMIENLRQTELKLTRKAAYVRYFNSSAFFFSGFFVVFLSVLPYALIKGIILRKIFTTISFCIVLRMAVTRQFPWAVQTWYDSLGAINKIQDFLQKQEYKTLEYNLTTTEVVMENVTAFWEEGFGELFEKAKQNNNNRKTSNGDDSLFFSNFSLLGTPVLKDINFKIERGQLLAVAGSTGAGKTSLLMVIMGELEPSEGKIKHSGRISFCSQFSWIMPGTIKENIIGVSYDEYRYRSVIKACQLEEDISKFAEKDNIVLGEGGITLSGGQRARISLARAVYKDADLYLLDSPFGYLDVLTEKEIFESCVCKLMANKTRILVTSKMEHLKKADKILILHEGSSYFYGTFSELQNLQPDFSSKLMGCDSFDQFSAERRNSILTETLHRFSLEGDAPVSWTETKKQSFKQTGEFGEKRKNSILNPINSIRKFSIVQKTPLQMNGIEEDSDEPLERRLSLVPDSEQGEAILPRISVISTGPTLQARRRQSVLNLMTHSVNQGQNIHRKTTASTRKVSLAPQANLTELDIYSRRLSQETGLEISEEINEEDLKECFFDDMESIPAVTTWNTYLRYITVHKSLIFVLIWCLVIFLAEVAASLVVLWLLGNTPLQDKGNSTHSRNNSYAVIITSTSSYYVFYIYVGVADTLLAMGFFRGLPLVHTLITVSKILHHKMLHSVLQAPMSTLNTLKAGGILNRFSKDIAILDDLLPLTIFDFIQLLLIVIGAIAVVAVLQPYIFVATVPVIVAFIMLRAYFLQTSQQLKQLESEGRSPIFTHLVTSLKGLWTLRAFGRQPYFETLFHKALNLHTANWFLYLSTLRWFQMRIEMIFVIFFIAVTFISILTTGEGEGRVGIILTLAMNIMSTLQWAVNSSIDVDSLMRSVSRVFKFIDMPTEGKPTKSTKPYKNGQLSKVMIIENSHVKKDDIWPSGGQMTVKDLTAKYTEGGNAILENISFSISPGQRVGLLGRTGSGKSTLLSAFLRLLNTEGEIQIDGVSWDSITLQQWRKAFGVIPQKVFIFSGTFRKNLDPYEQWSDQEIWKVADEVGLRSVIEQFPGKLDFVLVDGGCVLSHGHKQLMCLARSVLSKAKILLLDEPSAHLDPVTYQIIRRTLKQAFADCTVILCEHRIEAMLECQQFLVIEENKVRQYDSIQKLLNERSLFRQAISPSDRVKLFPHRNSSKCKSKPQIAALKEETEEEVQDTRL", "conditions": "0.1 and 2 mM; primary nasal polyp epithelia or IB3-1 cells; up to 7 days in culture; cited from earlier work"}, "ΔF508-CFTR [2]": {"biological_target": "T1, ΔF508-CFTR", "conditions": "IB3-1 cells; 2.5 mM; cited from earlier work"}, "ΔF508-CFTR [3]": {"tested_on": "ΔF508-CFTR", "conditions": "cited from earlier work"}, "ΔF508-CFTR [4]": {"tested_on": "ΔF508-CFTR", "conditions": "CF epithelial cells; cited from earlier work"}, "CFTR gene": {"tested_on": "CFTR gene", "conditions": "cited from earlier work"}, "[5]": {"conditions": "in vivo; cited from earlier work"}, "ΔF508-CFTR [6]": {"tested_on": "ΔF508-CFTR", "conditions": "up to 300 mM; cited from earlier work"}, "IB3-1 cells": {"tested_on": "IB3-1 cells", "conditions": "respiratory epithelial cells; 1-2 mM; cited from earlier work"}, "[7]": {"tested_on": "ΔF508-homozygous pancreatic acinar cell line", "conditions": "cited from earlier work"}, "ΔF508-CFTR [8]": {"biological_target": "T1, ΔF508-CFTR", "conditions": "1 M or 10%; cited from earlier work"}, "[9]": {"conditions": "in vivo; cited from earlier work", "remark": "listed apart in the source"}, "fetal hemoglobin": {"tested_on": "fetal hemoglobin", "assay": "fetal hemoglobin levels in thalassemic patients", "type": "in vivo", "description": "Compositions administered in pulses have the surprising benefit of reducing the overall load of drug on the patient as the total amount of drug administered can be substantially less than that amount that has been therapeutically administered by conventional continuous therapy. Substantially means that there is more than an insignificant difference between the amount or concentration of a composition administered by pulsing according to the invention verses the amount or concentration administered using conventional therapy, without compromising the beneficial effect achieved to the patient. […] Typical pulsed amounts of arginine butyrate are from about 2 to about 20 g/kg/month, and preferably from about 3 to about 10 g/kg/month wherein the patient receives a total of less than about 20 kg per month, preferably less than about 15 kg per month and more preferably less than about 10 kg per month. […] Preferably, the therapeutically effective pulsed dose is less than the continuous dose, or less than one half, one third, one quarter, one fifth, one tenth or even one twentieth of the therapeutic continuous dose of the same composition or even less."}},
  "note": "“Also recorded” adds a separate entry of the source. Where two headings read alike, the source gives them in different places.",
  "data": [
    {"compound": "O=C(O)CCCc1ccccc1", "note": "[4PBA, 4-phenylbutyrate]", "values": [
      {"measurement": "forskolin-activated chloride secretion", "setting": "ΔF508-CFTR [1]", "value": "restoration of forskolin-activated chloride secretion"},
      {"measurement": "protein kinase A-activated, linear, 10 pS chloride channels at the plasma membrane", "setting": "ΔF508-CFTR [2]", "value": "appeared at the plasma membrane"},
      {"measurement": "CFTR immunoreactivity in immunoblot experiments", "setting": "ΔF508-CFTR [3]; 4PBA-treated samples", "value": "increased CFTR immunoreactivity"},
      {"measurement": "higher molecular mass forms of CFTR (immunoblot)", "setting": "ΔF508-CFTR [3]; IB3-1 cells, 0.1-1 mM", "value": "appearance of higher molecular mass forms of CFTR"},
      {"measurement": "higher molecular mass forms of CFTR (immunoblot)", "setting": "ΔF508-CFTR [3]; primary nasal epithelia, 5 mM", "value": "appearance of higher molecular mass forms of CFTR"},
      {"measurement": "amount of ΔF508-CFTR by immunocytochemistry", "setting": "ΔF508-CFTR [4]", "value": "consistent with increasing amounts of ΔF508-CFTR; also recorded: Increased CFTR immunoreactivity"},
      {"measurement": "CFTR RNA levels", "setting": "CFTR gene", "value": "no changes in CFTF RNA levels; also recorded: no increases in CFTR mRNA"},
      {"measurement": "clinical tolerability", "setting": "[5]", "value": "not well tolerated"}
    ]},
    {"compound": "CCCC(=O)O", "note": "[butyrate, butyric acid]", "values": [
      {"measurement": "cAMP-stimulation indicative of chloride ion transport", "setting": "ΔF508-CFTR [6]", "value": "no increases in cAMP-stimulation was observed"},
      {"measurement": "cell health, growth rate and morphology", "setting": "IB3-1 cells", "value": "morphologic changes in IB3-1 cells, with rounding of cells and decreased growth rate"},
      {"measurement": "cAMP-responsive chloride secretion", "setting": "[7]", "value": "can induce cAMP-responsive chloride secretion"}
    ]},
    {"compound": "OCC(O)CO", "note": "[glycerol]", "values": [
      {"measurement": "movement of ΔF508-CFTR from the ER to the plasma membrane", "setting": "ΔF508-CFTR [8]", "value": "facilitate movement of ΔF508-CFTR from the ER to the plasma membrane"}
    ]},
    {"compound": "arginine butyrate", "values": [
      {"measurement": "half-life", "setting": "[9]", "value": 15, "unit": "min"},
      {"measurement": "effectiveness at continuous administration", "setting": "fetal hemoglobin; about 2000 mg/kg patient weight, continuous", "value": "effective"},
      {"measurement": "benefit measured by rise in fetal hemoglobin levels", "setting": "fetal hemoglobin; about 400 to 1500 mg/kg in pulses, thalassemic patients", "value": "surprisingly more beneficial"}
    ]}
  ]
}
